# Laboratory results as given in patent US20260070945A1, “MACROCYCLIC IMMUNOMODULATORS” (Bristol-Myers Squibb Company, priority 2022, published 2026).
# Where a SMILES comes first, the peptide text is derived from it. Bridges are numbered along the chain shown (N, C = ends). [ ]: non-standard residue; d: D form. The star is where a group is joined. Phe(4-COOH) = N[C@@H](Cc1ccc(C(=O)O)cc1)C(=O)O; Bip = N[C@@H](Cc1ccc(-c2ccccc2)cc1)C(=O)O; hhGln = NC(=O)CCCC[C@H](N)C(=O)O; Cha = N[C@@H](CC1CCCCC1)C(=O)O; Cit = NC(=O)NCCC[C@H](N)C(=O)O; 12Ado = NCCCCCCCCCCCC(=O)O; Carboxymethyl = O=C(O)C*; NMeA = CN[C@@H](C)C(=O)O; Orn = NCCC[C@H](N)C(=O)O; Aun = NCCCCCCCCCCC(=O)O; Dab = NCC[C@H](N)C(=O)O; Dap = NC[C@H](N)C(=O)O; AEEA = NCCOCCOCC(=O)O
# Target: T1, PD-1/PD-L1 interaction (PE-labeled human PD-L1-Ig binding to Jurkat cell line over-expressing human PD-1) (Homo sapiens, UniProt Q15116)
# T1 construct: expressed in transfected cells; host or cells: Jurkat
# Assay: Jurkat-PD-1 Cell Binding High-Content Screening Assay (CBA)
# Conditions: Jurkat-hPD-1 cells, PE-labeled PD-L1-Ig 20 nM final; read-out: Jurkat HPD1 PDL1 IC50
# Outline: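 Binding of 20 nM (final) PE-tagged PD-L1-Ig to compound-pretreated Jurkat-hPD-1 cells was measured by high-content imaging after 1 h. Pretreatment ran 2 h at 37 °C in DMEM with 10% fetal calf serum.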
# T1 sequence (Q15116 25-288): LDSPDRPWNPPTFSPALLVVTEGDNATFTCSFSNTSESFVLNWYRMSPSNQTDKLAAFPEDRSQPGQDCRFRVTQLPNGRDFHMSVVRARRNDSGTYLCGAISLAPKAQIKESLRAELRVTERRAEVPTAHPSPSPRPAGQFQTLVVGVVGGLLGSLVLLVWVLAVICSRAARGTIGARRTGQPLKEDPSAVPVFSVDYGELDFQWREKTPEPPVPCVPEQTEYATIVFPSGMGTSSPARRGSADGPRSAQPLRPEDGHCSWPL
row,Compound,IC50
1,CC(C)C[C@@H]1NC(=O)[C@H](Cc2c[nH]c3ccccc23)NC(=O)[C@H](CC(=O)O)NC(=O)[C@H](Cc2ccc(C(=O)O)cc2)NC(=O)[C@H](Cc2ccc(OCC(=O)O)cc2)NC(=O)CSC[C@@H](C(=O)N[C@@H](CCN)C(=O)NCCOCCOCC(=O)NCCCCCCCCCCC(=O)O)NC(=O)[C@H](CCCNC(N)=O)NC(=O)[C@H](C(C)C)NC(=O)[C@H](CC2CCCCC2)NC(=O)[C@H](CCN)NC(=O)[C@@H](CC(C)C)NC(=O)[C@H](C)N(C)C(=O)[C@H](C(C)C)NC(=O)[C@H](Cc2ccc(-c3ccccc3)cc2)NC1=O [Example 2127] ({CH2CO}-Y(Carboxymethyl)[Phe(4-COOH)]DWL[Bip]V[NMeA][dL][Dab][Cha]V[Cit]C[Dab][AEEA][Aun]-OH; thioether N-14),10.4 nM
2,CC(C)C[C@@H]1NC(=O)[C@H](Cc2c[nH]c3ccccc23)NC(=O)[C@H](CC(=O)O)NC(=O)[C@H](Cc2ccc(C(=O)O)cc2)NC(=O)[C@H](Cc2ccc(OCC(=O)O)cc2)NC(=O)CSC[C@@H](C(=O)N[C@@H](CCCN)C(=O)NCCOCCOCC(=O)NCCCCCCCCCCC(=O)O)NC(=O)[C@H](CCCCC(N)=O)NC(=O)[C@H](C(C)C)NC(=O)[C@H](CC2CCCCC2)NC(=O)[C@H](CCN)NC(=O)[C@@H](CC(C)C)NC(=O)[C@H](C)N(C)C(=O)[C@H](C(C)C)NC(=O)[C@H](Cc2ccc(-c3ccccc3)cc2)NC1=O [Example 2128] ({CH2CO}-Y(Carboxymethyl)[Phe(4-COOH)]DWL[Bip]V[NMeA][dL][Dab][Cha]V[hhGln]C[Orn][AEEA][Aun]-OH; thioether N-14),8.9 nM
3,CC(C)C[C@@H]1NC(=O)[C@H](Cc2c[nH]c3ccccc23)NC(=O)[C@H](CC(=O)O)NC(=O)[C@H](Cc2ccc(C(=O)O)cc2)NC(=O)[C@H](Cc2ccc(OCC(=O)O)cc2)NC(=O)CSC[C@@H](C(=O)N[C@@H](CCCN)C(=O)NCCOCCOCC(=O)NCCCCCCCCCCCC(=O)O)NC(=O)[C@H](CO)NC(=O)[C@H](C(C)C)NC(=O)[C@H](CC2CCCCC2)NC(=O)[C@H](CCN)NC(=O)[C@@H](CC(C)C)NC(=O)[C@H](C)N(C)C(=O)[C@H](C(C)C)NC(=O)[C@H](Cc2ccc(-c3ccccc3)cc2)NC1=O [Example 2131] ({CH2CO}-Y(Carboxymethyl)[Phe(4-COOH)]DWL[Bip]V[NMeA][dL][Dab][Cha]VSC[Orn][AEEA][12Ado]-OH; thioether N-14),19.1 nM
4,CC(C)C[C@@H]1NC(=O)[C@H](Cc2c[nH]c3ccccc23)NC(=O)[C@H](CC(=O)O)NC(=O)[C@H](Cc2ccc(C(=O)O)cc2)NC(=O)[C@H](Cc2ccc(OCC(=O)O)cc2)NC(=O)CSC[C@@H](C(=O)N[C@@H](CN)C(=O)NCCOCCOCC(=O)NCCCCCCCCCCC(=O)O)NC(=O)[C@H](CCCNC(N)=O)NC(=O)[C@H](C(C)C)NC(=O)[C@H](CC2CCCCC2)NC(=O)[C@H](CCN)NC(=O)[C@@H](CC(C)C)NC(=O)[C@H](C)N(C)C(=O)[C@H](C(C)C)NC(=O)[C@H](Cc2ccc(-c3ccccc3)cc2)NC1=O [Example 2132] ({CH2CO}-Y(Carboxymethyl)[Phe(4-COOH)]DWL[Bip]V[NMeA][dL][Dab][Cha]V[Cit]C[Dap][AEEA][Aun]-OH; thioether N-14),8.2 nM
5,CC(C)C[C@@H]1NC(=O)[C@H](Cc2c[nH]c3ccccc23)NC(=O)[C@H](CC(=O)O)NC(=O)[C@H](Cc2ccc(C(=O)O)cc2)NC(=O)[C@H](Cc2ccc(OCC(=O)O)cc2)NC(=O)CSC[C@@H](C(=O)N[C@@H](CCCN)C(=O)NCCOCCOCC(=O)NCCCCCCCCCCC(=O)O)NC(=O)[C@H](CO)NC(=O)[C@H](C(C)C)NC(=O)[C@H](CC2CCCCC2)NC(=O)[C@H](CCCCN)NC(=O)[C@@H](CC(C)C)NC(=O)[C@H](C)N(C)C(=O)[C@H](C(C)C)NC(=O)[C@H](Cc2ccc(-c3ccccc3)cc2)NC1=O [Example 2133] ({CH2CO}-Y(Carboxymethyl)[Phe(4-COOH)]DWL[Bip]V[NMeA][dL]K[Cha]VSC[Orn][AEEA][Aun]-OH; thioether N-14),23.4 nM
6,CC(C)C[C@@H]1NC(=O)[C@H](Cc2c[nH]c3ccccc23)NC(=O)[C@H](CC(=O)O)NC(=O)[C@H](Cc2ccc(C(=O)O)cc2)NC(=O)[C@H](Cc2ccc(OCC(=O)O)cc2)NC(=O)CSC[C@@H](C(=O)N[C@@H](CCCN)C(=O)NCCOCCOCC(=O)NCCCCCCCCCCC(=O)O)NC(=O)[C@H](CCCN)NC(=O)[C@H](C(C)C)NC(=O)[C@H](CC2CCCCC2)NC(=O)[C@H](CCN)NC(=O)[C@@H](CC(C)C)NC(=O)[C@H](C)N(C)C(=O)[C@H](C(C)C)NC(=O)[C@H](Cc2ccc(-c3ccccc3)cc2)NC1=O [Example 2135] ({CH2CO}-Y(Carboxymethyl)[Phe(4-COOH)]DWL[Bip]V[NMeA][dL][Dab][Cha]V[Orn]C[Orn][AEEA][Aun]-OH; thioether N-14),13.2 nM

# Continued by falling IC50, values first:
row,IC50,Compound
1,32 nM,CC(C)C[C@@H]1NC(=O)[C@H](Cc2c[nH]c3ccccc23)NC(=O)[C@H](CC(=O)O)NC(=O)[C@H](Cc2ccc(C(=O)O)cc2)NC(=O)[C@H](Cc2ccc(OCC(=O)O)cc2)NC(=O)CSC[C@@H](C(=O)N[C@@H](CCCN)C(=O)NCCOCCOCC(=O)NCCCCCCCCCCC(=O)O)NC(=O)[C@H](CN)NC(=O)[C@H](C(C)C)NC(=O)[C@H](CC2CCCCC2)NC(=O)[C@H](CCN)NC(=O)[C@@H](CC(C)C)NC(=O)[C@H](C)N(C)C(=O)[C@H](C(C)C)NC(=O)[C@H](Cc2ccc(-c3ccccc3)cc2)NC1=O [Example 2134] ({CH2CO}-Y(Carboxymethyl)[Phe(4-COOH)]DWL[Bip]V[NMeA][dL][Dab][Cha]V[Dap]C[Orn][AEEA][Aun]-OH; thioether N-14)
2,11.8 nM,CC(C)C[C@@H]1NC(=O)[C@H](Cc2c[nH]c3ccccc23)NC(=O)[C@H](CC(=O)O)NC(=O)[C@H](Cc2ccc(OCC(=O)O)cc2)NC(=O)[C@H](Cc2ccc(OCC(=O)O)cc2)NC(=O)CSC[C@@H](C(=O)N[C@@H](CCCN)C(=O)NCCOCCOCC(=O)NCCCCCCCCCCC(=O)O)NC(=O)[C@H](CO)NC(=O)[C@H](C(C)C)NC(=O)[C@H](CC2CCCCC2)NC(=O)[C@H](CCN)NC(=O)[C@@H](CC(C)C)NC(=O)[C@H](C)N(C)C(=O)[C@H](C(C)C)NC(=O)[C@H](Cc2ccc(-c3ccccc3)cc2)NC1=O [Example 2130] ({CH2CO}-Y(Carboxymethyl)Y(Carboxymethyl)DWL[Bip]V[NMeA][dL][Dab][Cha]VSC[Orn][AEEA][Aun]-OH; thioether N-14)
3,11.2 nM,CC(C)C[C@@H]1NC(=O)[C@H](Cc2c[nH]c3ccccc23)NC(=O)[C@H](CC(=O)O)NC(=O)[C@H](Cc2ccc(OCC(=O)O)cc2)NC(=O)[C@H](Cc2ccc(OCC(=O)O)cc2)NC(=O)CSC[C@@H](C(=O)N[C@@H](CCCN)C(=O)NCCOCCOCC(=O)NCCCCCCCCCCC(=O)O)NC(=O)[C@H](CCCCC(N)=O)NC(=O)[C@H](C(C)C)NC(=O)[C@H](CC2CCCCC2)NC(=O)[C@H](CCN)NC(=O)[C@@H](CC(C)C)NC(=O)[C@H](C)N(C)C(=O)[C@H](C(C)C)NC(=O)[C@H](Cc2ccc(-c3ccccc3)cc2)NC1=O [Example 2129] ({CH2CO}-Y(Carboxymethyl)Y(Carboxymethyl)DWL[Bip]V[NMeA][dL][Dab][Cha]V[hhGln]C[Orn][AEEA][Aun]-OH; thioether N-14)
